Measured values as given in paper PMC11314621, “Cheminformatics-Guided Exploration of Synthetic Marine Natural Product-Inspired Brominated Indole-3-Glyoxylamides and Their Potentials for Drug Discovery” (Molecules, 2024).
Read-outs that look alike come from different tables or passages of the source.

Columns and labels:
[1] = biological target: T1, α-chymotrypsin from bovine pancreas (Bos taurus, UniProt P00766); assay: Serine protease assay, chymotrypsin; assay type: biochemical; conditions: 10 µM; remaining enzyme activity
T1 construct: α-chymotrypsin from bovine pancreas (Sigma, C4129); purchased Sigma C4129; host or cells: bovine pancreas
Method: (§1) Serine protease-inhibitory activities for 25–56 were determined in 96 well plates. Each inhibitor was initially tested in duplicate against elastase and chymotrypsin at 10 µM. […] Assays for the inhibition of elastase were undertaken using high-purity porcine pancreatic elastase (Sigma, Melbourne, Victoria, Australia, E0258) in an assay buffer of 50 mM Tris-HCl (pH 8.0) at room temperature. Dilutions of each inhibitor (originally resuspended in DMSO) were prepared in triplicate and then preincubated with 375 ng of elastase for 15 min at room temperature in a total reaction volume of 85 µL. Following this preincubation, 15 µL of 2 mM N-succinyl-Ala-Ala-Ala-p-nitroanilide (Sigma, S4760) in assay buffer was added to each well and kinetic measurement of absorbance at 405 nm (Tecan Spark Plate Reader, Zürich, Switzerland) was undertaken for 30 min. […] Dilutions of each inhibitor were prepared in triplicate and preincubated with 5 µg of chymotrypsin for 10 min at 37 °C in a total reaction volume of 75 µL. After preincubation, 25 µL of 2 mM N-succinyl-Gly-Gly-Phe-p-nitroanilide (Sigma, S1899) was added to each well and kinetic measurement of absorbance at 405 nm was undertaken for 30 min. Inhibitory activity was determined by comparison of the slope of the reaction curve for multiple dilutions of the inhibitor to that of an equivalent solvent control and expressed as IC50 ± standard deviation.

P. falciparum Dd2 = assay: Antiplasmodial image-based assay, Dd2 strain; assay type: cell-based, Plasmodium falciparum; conditions: chloroquine-resistant P. falciparum strain Dd2; for % Inhibition @ 60 µM, Dd2: 72 h; for IC50: Plasmodium falciparum, control compounds
Method: (§2) An anti-plasmodial imaging assay reported by Duffy and Avery was used to examine the antiplasmodial activities of synthetic indoles 25, 26, 36, 37, 38, 40, 41, 43, 45, 46, 47, 48, 50 and 51. All compounds were diluted to […] in DMSO and tested at three increasing concentrations from 0.4 nM–40 μM per log dose in a 16-point CRC ([…]) parasite strains of Plasmodium falciparum. […] Normalised percent inhibition data was obtained using in-plate positive (4 μM DHA) and negative (0.4% DMSO) controls, which were then used to calculate IC50 values. Compounds were incubated in CellCarrier-384 well imaging plates in the presence of 2% parasitemia (3D7 or Dd2) at 0.3% hematocrit in a total assay volume of 50 μL for 72 h at 37 °C, 5% O2, 5% CO2 and 90% N2. After incubation, plates were stained with 4′,6-diamidino-2-phenylindole (DAPI) and imaged using an Opera Phenix high-content imaging system (Revvity, Mulgrave, Victoria, Australia). Images were analysed using Harmony (Revvity) software (version 3), while percent parasite inhibition was calculated using the minimum (0.4% DMSO) and (DHA). IC50 values were determined by plotting % inhibition against log dose and analysed using nonlinear regression and sigmoidal dose-response using GraphPad Prism version 6.

HEK293 cells = assay: HEK293 cell cytotoxicity; assay type: cell-based; conditions: human embryonic kidney cell line
SARS-CoV-2 3CLpro = biological target: T2, SARS-CoV-2 3CLpro (Severe acute respiratory syndrome coronavirus 2, UniProt P0DTD1); assay: biochemical
T2 construct: Each well contained 25 nM of SARS-CoV-2 3CL^Pro and eCFP-Venus biosensor (500 nM)

[2] = biological target: T3, porcine pancreatic elastase (Sus scrofa, UniProt P00772); assay: Serine protease assay, elastase; assay type: biochemical; conditions: remaining enzyme activity
T3 construct: high-purity porcine pancreatic elastase (Sigma, Melbourne, Victoria, Australia, E0258); purchased Sigma E0258
Method: as §1

P. falciparum 3D7 = assay: Antiplasmodial image-based assay, 3D7 strain; assay type: cell-based, Plasmodium falciparum; conditions: chloroquine-sensitive P. falciparum strain 3D7; for % Inhibition @ 60 µM, 3D7 / inhibition: 72 h, 60 µM; for IC50 / inhibition: Plasmodium falciparum; for IC50: control compounds; for inhibition: 3D7, 72 h
Method: as §2

T3 sequence (P00772 27-266): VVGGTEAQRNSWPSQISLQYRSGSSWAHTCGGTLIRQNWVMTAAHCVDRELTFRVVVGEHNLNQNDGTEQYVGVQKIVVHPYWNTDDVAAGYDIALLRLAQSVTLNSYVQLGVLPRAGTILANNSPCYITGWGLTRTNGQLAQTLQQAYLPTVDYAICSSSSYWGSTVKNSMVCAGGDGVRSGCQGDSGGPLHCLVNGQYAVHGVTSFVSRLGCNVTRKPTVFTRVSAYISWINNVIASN

Compound	% enzyme activity @ 10 µM, chymotrypsin [1] [%]	% inhibition @ 20 µM, No DTT (SARS-CoV-2 3CLpro; 20 µM, no DTT) [%]	% inhibition @ 20 µM, DTT (SARS-CoV-2 3CLpro; 20 µM, with DTT (4 mM)) [%]	% enzyme activity @ 10 µM, elastase [2] [%]	also measured
O=C(N[C@H](Cc1ccc(O)cc1)C(=O)O)C(=O)c1c[nH]c2ccc(Br)cc12 [Compound 50, 5-bromoindolyl-3-glyoxyl-D-tyrosine]	89.2	6.1	0.9	95.3	% Inhibition @ 60 µM, Dd2 (P. falciparum Dd2): 97.5%; % Inhibition @ 60 µM, HEK293 (HEK293 cells): 20.5%; % Inhibition @ 60 µM, 3D7 (P. falciparum 3D7): 99.0%
O=C(N[C@@H](Cc1c[nH]c2ccccc12)C(=O)O)C(=O)c1c[nH]c2cc(Br)ccc12 [Compound 47, 6-bromoindolyl-3-glyoxyl-L-tryptophan]	99.6	24.4	4.1	89.5	% Inhibition @ 60 µM, Dd2 (P. falciparum Dd2): 20.0%; % Inhibition @ 60 µM, HEK293 (HEK293 cells): 14.0%; % Inhibition @ 60 µM, 3D7 (P. falciparum 3D7): 14.0%
C[C@H](NC(=O)C(=O)c1c[nH]c2cc(Br)ccc12)C(=O)O [Compound 27, 6-bromoindolyl-3-glyoxyl-L-alanine]	94.4	1.9	1.3	109.6	
CC(C)[C@H](NC(=O)C(=O)c1c[nH]c2ccc(Br)cc12)C(=O)O [Compound 53, 5-bromoindolyl-3-glyoxyl-L-valine]	91.6	1.9	1.3	101.3	
CCN(CC)CCCC(C)Nc1ccnc2cc(Cl)ccc12 (stereo not shown) [Chloroquine, reference compound]					IC50 (P. falciparum Dd2): 696 nM; IC50 (P. falciparum 3D7): 77.8 nM
CCc1nc(N)nc(N)c1-c1ccc(Cl)cc1 [Pyrimethamine, reference compound]					inhibition (P. falciparum 3D7): -10%; IC50 (P. falciparum 3D7): 14.1 nM
CC(C)[C@H](NC(=O)C(=O)c1c[nH]c2cc(Br)ccc12)C(=O)O [Compound 55, 6-bromoindolyl-3-glyoxyl-L-valine]	105.0	6.8	3.0	88.9	
C[C@H]1[C@@H](O)O[C@@H]2O[C@@]3(C)CC[C@H]4[C@H](C)CC[C@@H]1[C@@]24OO3 [Dihydroartemisinin, reference compound]					IC50 (P. falciparum Dd2): 1.7 nM; inhibition (P. falciparum 3D7): 100%; IC50 (P. falciparum 3D7): 1.3 nM
COc1ccc(C[C@H](N)C(=O)N[C@H]2[C@@H](O)[C@H](n3cnc4c(N(C)C)ncnc43)O[C@@H]2CO)cc1 [Puromycin, reference compound]					IC50 (P. falciparum Dd2): 86.5 nM; IC50 (HEK293 cells; HEK293): 673 nM; IC50 (P. falciparum 3D7): 79.2 nM
CC(C)[C@@H](NC(=O)C(=O)c1c[nH]c2ccc(Br)cc12)C(=O)O [Compound 54, 5-bromoindolyl-3-glyoxyl-D-valine]	97.3	1.3	1.0	105.4	
N=C(N)NCCC[C@H](NC(=O)C(=O)c1c[nH]c2ccc(Br)cc12)C(=O)O [Compound 29, 5-bromoindolyl-3-glyoxyl-L-arginine]	88.8	13.8	2.4	100.8	
N=C(N)NCCC[C@H](NC(=O)C(=O)c1c[nH]c2cc(Br)ccc12)C(=O)O [Compound 31, 6-bromoindolyl-3-glyoxyl-L-arginine]	99.5	4.3	2.4	99.3	
N=C(N)NCCC[C@@H](NC(=O)C(=O)c1c[nH]c2cc(Br)ccc12)C(=O)O [Compound 32, 6-bromoindolyl-3-glyoxyl-D-arginine]	99.2	3.0	0.8	102.3	
O=C(N[C@@H](CO)C(=O)O)C(=O)c1c[nH]c2cc(Br)ccc12 [Compound 44, 6-bromoindolyl-3-glyoxyl-L-serine]	97.1	7.3	2.9	99.0	
N=C(N)NCCC[C@@H](NC(=O)C(=O)c1c[nH]c2ccc(Br)cc12)C(=O)O [Compound 30, 5-bromoindolyl-3-glyoxyl-D-arginine]	86.3	10.1	1.0	96.2	
O=C(N[C@@H](CSSC[C@H](NC(=O)C(=O)c1c[nH]c2ccc(Br)cc12)C(=O)O)C(=O)O)C(=O)c1c[nH]c2ccc(Br)cc12 [Compound 33, 5-bromoindolyl-3-glyoxyl-L-cystine]					remaining activity at 10 µM [1]: 94.7%; inhibition at 20 µM (SARS-CoV-2 3CLpro; 20 µM, no DTT, read-out: % inhibition @ 20 µM, No DTT): 64.1%; inhibition at 20 µM (SARS-CoV-2 3CLpro; 20 µM, with DTT (4 mM), read-out: % inhibition @ 20 µM, DTT): 2%; IC50 (SARS-CoV-2 3CLpro; no DTT): 12500 nM; remaining activity at 10 µM [2]: 107%
O=C(N[C@@H](CO)C(=O)O)C(=O)c1c[nH]c2ccc(Br)cc12 [Compound 43, 5-bromoindolyl-3-glyoxyl-L-serine]	96.1	105.5	2.0	101.4	% Inhibition @ 60 µM, Dd2 (P. falciparum Dd2): 1.0%; % Inhibition @ 60 µM, HEK293 (HEK293 cells): 21.0%; IC50 (SARS-CoV-2 3CLpro; no DTT): 1200 nM; % Inhibition @ 60 µM, 3D7 (P. falciparum 3D7): 1.0%
C[C@@H](NC(=O)C(=O)c1c[nH]c2cc(Br)ccc12)C(=O)O [Compound 28, 6-bromoindolyl-3-glyoxyl-D-alanine]	92.1	1.7	0.8	107.4	
CC(C)[C@@H](NC(=O)C(=O)c1c[nH]c2cc(Br)ccc12)C(=O)O [Compound 56, 6-bromoindolyl-3-glyoxyl-D-valine]	94.0	6.8	2.7	104.4	
O=C(N[C@H](Cc1c[nH]c2ccccc12)C(=O)O)C(=O)c1c[nH]c2cc(Br)ccc12 [Compound 48, 6-bromoindolyl-3-glyoxyl-D-tryptophan]	83.6	20.8	2.0	91.1	% Inhibition @ 60 µM, Dd2 (P. falciparum Dd2): 97.5%; % Inhibition @ 60 µM, HEK293 (HEK293 cells): 16.0%; % Inhibition @ 60 µM, 3D7 (P. falciparum 3D7): 99.0%
O=c1c2ccccc2[se]n1-c1ccccc1 [Ebselen, reference compound]					inhibition at 20 µM (SARS-CoV-2 3CLpro; read-out: % inhibition @ 20 µM, DTT): 0.2%; inhibition at 20 µM (SARS-CoV-2 3CLpro; read-out: % inhibition @ 20 µM, No DTT): 114%
O=C(N[C@@H](Cc1ccc(O)cc1)C(=O)O)C(=O)c1c[nH]c2ccc(Br)cc12 [Compound 49, 5-bromoindolyl-3-glyoxyl-L-tyrosine]	82.9	15.0	1.9	99.5	
